The text below walks through data of paper PMC10498667 (Chemical Science, 2023).

For this experiment, the target named is T1, Aβ40 (Homo sapiens, UniProt P05067).
T1 construct: Ab40 ([…]-; purchased Peptide Institute, Inc. (Osaka, Japan)
The experiment can be described thus: ESI-MS and ESI-MS2 of Aβ40 treated with 6. The settings on record: 6 200 μM, 3 h. The source says: To identify the modifications of Aβ in both the absence and presence of Cu(II) upon treatment of 6, we carried out the studies employing electrospray ionization mass spectrometry (ESI-MS). In the sample containing metal-free Aβ42 and 6, the addition of +16 Da into the +3-charged Aβ42 monomer, assigned to be the oxidized monomeric Aβ42, was detected (Fig. 7a), while such oxidation was not observed under anaerobic conditions (Fig. S20 ^†). To determine the oxidized amino acid residues in Aβ42, the b fragments generated by collision-induced dissociation were analyzed by tandem MS (ESI-MS^2). As illustrated in Fig. 7b and S21a, ^† the Met35 residue was measured to be the oxidation site in the singly oxidized Aβ42. […] Similar to metal-free Aβ42, the oxidation of Aβ40 at the Met35 residue was monitored by incubation with 6 (Fig. S22a, b and S23a ^†). […]
2D 1H−15N SOFAST-HMQC NMR Experiments. […] Experimental data were processed with NMRpipe29 and Sparky 3.115.30 The 1H and 15N assignments of 15N-labeled Ab were determined based on the previous results.21,31 The chemical shift perturbation was calculated following the equation (eq 4).32 Note that DdH and DdN represent the alterations in the chemical shifts of 1H and 15N of 15N-labeled Ab, respectively. […]

T1 sequence (P05067 672-711 limits assumed): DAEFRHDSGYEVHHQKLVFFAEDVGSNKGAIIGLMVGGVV

For the compound `O=c1c(-c2ccc(O)c(O)c2)coc2cc(O)c(O)c(O)c12` [compound 6, 3-(3,4-dihydroxyphenyl)-5,6,7-trihydroxy-4H-chromen-4-one], the “plausible oxidation sites in singly oxidized Aβ” value (Cu(II)–Aβ40, Cu(II) 100 μM) was “His13, His14, and Met35”. In addition, the “oxidation site in singly oxidized Aβ” value (metal-free Aβ40 100 μM) is recorded as “Met35”.
